For test [1], the target named is T1, Glucocorticoid receptor (Homo sapiens, UniProt P04150).
T1 sequence (P04150 whole entry): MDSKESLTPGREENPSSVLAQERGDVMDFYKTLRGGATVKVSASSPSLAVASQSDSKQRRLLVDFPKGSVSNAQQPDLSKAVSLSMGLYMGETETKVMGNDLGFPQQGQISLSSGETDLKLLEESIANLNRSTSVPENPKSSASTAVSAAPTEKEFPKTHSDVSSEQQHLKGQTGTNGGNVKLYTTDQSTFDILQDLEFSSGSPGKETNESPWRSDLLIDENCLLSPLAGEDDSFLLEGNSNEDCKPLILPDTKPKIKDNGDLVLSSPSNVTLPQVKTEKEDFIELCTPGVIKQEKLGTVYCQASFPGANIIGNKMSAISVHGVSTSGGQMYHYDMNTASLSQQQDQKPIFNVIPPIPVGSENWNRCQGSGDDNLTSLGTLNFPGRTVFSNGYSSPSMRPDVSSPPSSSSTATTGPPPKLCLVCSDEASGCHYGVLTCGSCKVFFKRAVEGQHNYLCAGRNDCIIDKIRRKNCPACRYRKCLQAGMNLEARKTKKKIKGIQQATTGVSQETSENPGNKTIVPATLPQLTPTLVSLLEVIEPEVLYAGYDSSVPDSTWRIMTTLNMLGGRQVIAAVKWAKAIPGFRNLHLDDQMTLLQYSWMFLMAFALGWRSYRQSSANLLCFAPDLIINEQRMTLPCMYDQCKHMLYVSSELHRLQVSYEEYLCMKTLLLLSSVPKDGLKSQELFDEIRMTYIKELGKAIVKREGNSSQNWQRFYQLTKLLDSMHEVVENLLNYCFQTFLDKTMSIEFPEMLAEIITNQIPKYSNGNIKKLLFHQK
As to the kind of experiment: Antagonist activity at GR in human A549 cells transfected with luciferase gene linked to MMTV promoter assessed as inhibition of dexamethasone-induced luciferase transactivation activity after 24 hrs. In kind it is functional, cell-based.

The target in test [2] is T1, Glucocorticoid receptor. As to the kind of experiment: Displacement of fluorescent-labeled Dexamethasone from GR by fluorescent polarization assay.
The target in test [3] is T1, Glucocorticoid receptor. As to the kind of experiment: Activity at GR in human A549 cells by NF-kappaB transrepression assay. The class given is cell-based.
The target in test [4] is T2, Androgen receptor (Homo sapiens, UniProt P10275).
T2 sequence (P10275 whole entry): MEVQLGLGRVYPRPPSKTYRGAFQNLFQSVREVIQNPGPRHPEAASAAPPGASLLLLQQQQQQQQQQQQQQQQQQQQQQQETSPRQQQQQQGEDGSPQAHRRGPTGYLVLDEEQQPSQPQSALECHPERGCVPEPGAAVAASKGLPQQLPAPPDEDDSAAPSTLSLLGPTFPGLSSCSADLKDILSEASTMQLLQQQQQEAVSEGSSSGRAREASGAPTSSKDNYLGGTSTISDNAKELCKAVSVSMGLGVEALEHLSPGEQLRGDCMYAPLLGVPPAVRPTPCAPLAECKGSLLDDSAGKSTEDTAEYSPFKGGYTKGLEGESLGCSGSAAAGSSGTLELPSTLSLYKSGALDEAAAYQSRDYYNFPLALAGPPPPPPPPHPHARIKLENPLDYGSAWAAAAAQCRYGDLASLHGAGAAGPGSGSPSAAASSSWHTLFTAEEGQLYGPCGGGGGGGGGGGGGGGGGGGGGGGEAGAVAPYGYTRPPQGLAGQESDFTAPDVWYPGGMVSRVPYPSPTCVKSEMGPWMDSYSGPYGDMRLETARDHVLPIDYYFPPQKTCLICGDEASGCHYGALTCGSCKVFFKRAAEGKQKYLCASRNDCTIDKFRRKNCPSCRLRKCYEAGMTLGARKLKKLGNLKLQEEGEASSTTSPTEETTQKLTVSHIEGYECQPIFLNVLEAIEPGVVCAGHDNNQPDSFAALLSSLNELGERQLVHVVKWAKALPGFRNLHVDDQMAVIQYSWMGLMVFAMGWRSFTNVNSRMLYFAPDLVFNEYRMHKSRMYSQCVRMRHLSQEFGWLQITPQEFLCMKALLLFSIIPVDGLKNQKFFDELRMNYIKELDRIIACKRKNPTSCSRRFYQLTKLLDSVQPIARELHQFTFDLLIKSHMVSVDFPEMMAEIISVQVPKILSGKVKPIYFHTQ

Test [5] deals with T3, Progesterone receptor (Homo sapiens, UniProt P06401).
T3 sequence (P06401 whole entry): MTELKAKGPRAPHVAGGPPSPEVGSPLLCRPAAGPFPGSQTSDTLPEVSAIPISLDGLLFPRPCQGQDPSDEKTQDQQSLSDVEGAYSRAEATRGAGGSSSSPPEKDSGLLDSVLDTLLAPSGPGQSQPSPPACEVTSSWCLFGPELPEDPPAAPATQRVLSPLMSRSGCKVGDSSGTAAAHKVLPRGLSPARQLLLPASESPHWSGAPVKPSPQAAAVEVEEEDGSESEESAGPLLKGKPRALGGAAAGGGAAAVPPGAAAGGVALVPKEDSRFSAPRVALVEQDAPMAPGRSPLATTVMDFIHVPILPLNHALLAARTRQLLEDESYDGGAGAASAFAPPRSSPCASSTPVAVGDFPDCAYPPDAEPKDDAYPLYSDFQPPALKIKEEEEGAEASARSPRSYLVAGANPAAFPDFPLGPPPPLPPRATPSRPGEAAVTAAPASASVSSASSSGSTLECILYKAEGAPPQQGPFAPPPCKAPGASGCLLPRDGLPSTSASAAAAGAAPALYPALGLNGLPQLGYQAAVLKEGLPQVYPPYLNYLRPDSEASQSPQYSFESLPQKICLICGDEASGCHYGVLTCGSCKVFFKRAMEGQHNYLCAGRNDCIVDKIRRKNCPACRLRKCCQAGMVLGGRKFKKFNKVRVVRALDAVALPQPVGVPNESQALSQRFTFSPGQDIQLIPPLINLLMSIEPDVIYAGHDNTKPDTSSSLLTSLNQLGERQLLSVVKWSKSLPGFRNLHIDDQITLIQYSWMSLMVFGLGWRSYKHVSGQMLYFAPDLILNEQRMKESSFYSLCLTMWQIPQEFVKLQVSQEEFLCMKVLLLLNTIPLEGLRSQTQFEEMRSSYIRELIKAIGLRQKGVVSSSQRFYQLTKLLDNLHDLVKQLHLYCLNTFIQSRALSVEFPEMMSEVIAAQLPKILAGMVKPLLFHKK
As to the kind of experiment: Binding affinity to PR.

One may read the IC50 as the concentration at which inhibition is half-maximal. As to `CC(C)CNS(=O)(=O)c1ccc(-c2ccc3c(cnn3-c3ccc(F)cc3)c2)c(C(F)(F)F)c1`, the IC50 in test [1] is 3.16 µM; in test [2], 0.0398 µM; in test [3], over 10 µM; in test [4], 6.31 µM; in test [5], 0.631 µM.

`CCCS(=O)(=O)Nc1ccc(-c2ccc3c(cnn3-c3ccc(F)cc3)c2)c(C(F)(F)F)c1`: the half-inhibitory concentration (IC50) is 2 µM in test [1]; 0.0158 µM in test [2]; over 10 µM in test [3]; 3.16 µM in test [4]; over 10 µM in test [5].

Consider `O=S(=O)(NCCO)c1ccc(-c2ccc3c(cnn3-c3ccc(F)cc3)c2)c(C(F)(F)F)c1`, for which the half-inhibitory concentration (IC50) was 2 µM in test [1]; 0.0158 µM in test [2]; over 10 µM in test [3]; 10 µM in test [4]; 5.01 µM in test [5].

`CCS(=O)(=O)Nc1ccc(-c2ccc3c(cnn3-c3ccc(F)cc3)c2)c(C(F)(F)F)c1`: the IC50 is 2 µM in test [1]; 0.01 µM in test [2]; over 10 µM in test [3]; 5.01 µM in test [4]; over 10 µM in test [5].

As to `N#Cc1ccccc1-c1ccc2c(cnn2-c2ccc(F)cc2)c1`, the concentration for half-maximal inhibition (IC50) in test [2] was 0.398 µM; in test [3] it was over 10 µM; in test [4] it was over 10 µM; in test [5], over 10 µM.

With `N#Cc1ccc(-c2ccc3c(cnn3-c3ccc(F)cc3)c2)cc1`, the half-maximal inhibitory concentration (IC50) was over 10 µM in test [2], over 10 µM in test [3], over 10 µM in test [4] and 2 µM in test [5].

`CS(=O)(=O)Nc1ccc(-c2ccc3c(cnn3-c3ccc(F)cc3)c2)c(C(F)(F)F)c1`: the IC50 in test [1] was 1.58 µM; in test [2] it was 0.01 µM; in test [3], over 10 µM; in test [4], 5.01 µM; in test [5], over 10 µM.

For `CC(C)c1cc(C(C)C)c(S(=O)(=O)Nc2ccc(-c3ccc4c(cnn4-c4ccc(F)cc4)c3)c(C(F)(F)F)c2)c(C(C)C)c1`, the IC50 in test [1] was over 10 µM; in test [2], 0.251 µM; in test [3], over 10 µM; in test [4], over 10 µM; in test [5] it was over 10 µM.

In the case of `O=S(=O)(Nc1ccccc1)c1ccc(-c2ccc3c(cnn3-c3ccc(F)cc3)c2)c(C(F)(F)F)c1`, the concentration for half-maximal inhibition (IC50) in test [1] is 3.16 µM; in test [2], 0.0251 µM; in test [3], over 10 µM; in test [4] it was over 10 µM; in test [5] it was over 10 µM.

`CC(C)NS(=O)(=O)c1ccc(-c2ccc3c(cnn3-c3ccc(F)cc3)c2)c(C(F)(F)F)c1`: the IC50 was 1.26 µM in test [1]; 0.0126 µM in test [2]; over 10 µM in test [3]; over 10 µM in test [4]; 3.16 µM in test [5].

In the case of `CCOc1cccc(-c2ccc3c(cnn3-c3ccc(F)cc3)c2)c1`, the IC50 is 2.51 µM in test [2], over 10 µM in test [3], over 10 µM in test [4] and over 10 µM in test [5].

Take `Cc1cccc(-c2ccc3c(cnn3-c3ccc(F)cc3)c2)c1`: the half-maximal inhibitory concentration (IC50) in test [2] was 3.16 µM; in test [3], over 10 µM; in test [4], over 10 µM; in test [5], over 10 µM.

Turning to `Fc1ccc(-n2ncc3cc(-c4ccccc4C(F)(F)F)ccc32)cc1`, the IC50 in test [2] was 0.251 µM; in test [3], over 10 µM; in test [4] it was over 10 µM; in test [5] it was 2.51 µM.

Regarding `O=S(=O)(Nc1ccc(-c2ccc3c(cnn3-c3ccc(F)cc3)c2)c(C(F)(F)F)c1)c1ccccc1`, the 50% inhibitory concentration (IC50) in test [1] is 1.58 µM; in test [2] it was 0.0158 µM; in test [3], over 10 µM; in test [4], 6.31 µM; in test [5], over 10 µM.

With `Oc1ccc(-c2ccc3c(cnn3-c3ccc(F)cc3)c2)cc1`, the IC50 was 0.631 µM in test [2], over 10 µM in test [3], over 10 µM in test [4] and over 10 µM in test [5].

For the molecule `Cc1ccccc1-c1ccc2c(cnn2-c2ccc(F)cc2)c1`, the half-inhibitory concentration (IC50) is 1.26 µM in test [2], over 10 µM in test [3], over 10 µM in test [4] and 6.31 µM in test [5].

`CCCNS(=O)(=O)c1ccc(-c2ccc3c(cnn3-c3ccc(F)cc3)c2)c(C(F)(F)F)c1`: the IC50 in test [1] was 3.16 µM; in test [2], 0.0316 µM; in test [3], over 10 µM; in test [4], 6.31 µM; in test [5], 0.794 µM.

Take `Fc1ccc(-n2ncc3cc(-c4cccc(C(F)(F)F)c4)ccc32)cc1`: the IC50 is 3.16 µM in test [2], over 10 µM in test [3], over 10 µM in test [4] and 1.58 µM in test [5].

On to `CCOc1ccccc1-c1ccc2c(cnn2-c2ccc(F)cc2)c1`, for which the 50% inhibitory concentration (IC50) in test [2] is 0.501 µM; in test [3], over 10 µM; in test [4] it was over 10 µM; in test [5], over 10 µM.

Turning to `Oc1cccc(-c2ccc3c(cnn3-c3ccc(F)cc3)c2)c1`, the half-maximal inhibitory concentration (IC50) in test [2] was 0.794 µM; in test [3], over 10 µM; in test [4], over 10 µM; in test [5], 2.51 µM.

For the molecule `Cc1ccc(-c2ccc3c(cnn3-c3ccc(F)cc3)c2)cc1`, the IC50 in test [2], in test [3], in test [4] and in test [5] was over 10 µM in each case.

On to `N#Cc1cccc(-c2ccc3c(cnn3-c3ccc(F)cc3)c2)c1`, for which the IC50 in test [2] is over 2.51 µM; in test [3], over 10 µM; in test [4] it was over 10 µM; in test [5], over 10 µM.

Consider `Fc1ccc(-n2ncc3cc(-c4ccc(C(F)(F)F)cc4)ccc32)cc1`, for which the half-maximal inhibitory concentration (IC50) in test [2], in test [3], in test [4] and in test [5] was over 10 µM each time.

For `Fc1ccc(-n2ncc3cc(-c4ccccc4)ccc32)cc1`, the half-maximal inhibitory concentration (IC50) in test [2] was 3.16 µM; in test [3], over 10 µM; in test [4] it was over 10 µM; in test [5], over 10 µM.

Source of the values: ChEMBL document CHEMBL1155531, “Structure guided design of 5-arylindazole glucocorticoid receptor agonists and antagonists” (J Med Chem, 2010).
